Columns and labels:
CASOB (Sicklepod) = assay: Postemergence herbicidal evaluation; format: in vivo, Cassia obtusifolia; details: postemergence
Procedure, shortened: (§1)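 ~2-wk seedlings; postemergence spray, 40 psi; vehicle 1:1 acetone:water + 0.5% Tween 20; rate ≈0.0156–0.500 kg/ha; greenhouse hold; scored 4–5 wk after treatment, 0–9 scale vs control; repeat tests averaged.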

AMBEL (Ragweed, Common) = assay: Preemergence herbicidal evaluation; format: in vivo, Ambrosia artemisifolia; details: rated 4-5 weeks after treatment
Procedure, shortened: (§2)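 Herbicidal effect scored visually, 0-9, at 4 to 5 weeks against a control; compound applied preemergence by aqueous acetone spray to seeded soil at about 0.0156 to 0.500 kg/ha.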

[1] = test system: CHEAL (Lambsquarters, Common); assay: Preemergence herbicidal evaluation; format: in vivo, Chenopodium album; details: rated 4-5 weeks after treatment
Procedure, shortened: as §2

CYPSE (Flatsedge) [2] = assay: Postemergence weed control under flooded paddy conditions; format: in vivo, Cyperus serotinus; details: postemergence weeds, 3-4 weeks after treatment
Procedure, shortened: (§3)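 Flood-water application, about 0.0313–0.500 kg/ha a.i. in aqueous/acetone 50/50 v/v; water depth 1.5–3 cm throughout. Weeds 3–5 cm, rice 1.5–2.5 leaf. Greenhouse; 0–9 visual rating vs control at 3–4 wk.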

[3] = test system: TRZAWR (Wheat, Winter, cv Riband); assay: Preemergence herbicidal evaluation; format: in vivo, Triticum aestivum; details: rated 4-5 weeks after treatment
Procedure, shortened: as §2

GALAP (Galium) = assay: Postemergence herbicidal evaluation; format: in vivo, Galium aparine; details: postemergence
Procedure, shortened: as §1

[4] = test system: ECHORC (Watergrass (Calif.)); assay: Postemergence weed control under flooded paddy conditions; format: in vivo, Echinochloa oryzoides; details: postemergence weeds, 3-4 weeks after treatment
Procedure, shortened: as §3

ZEAMX (Corn, Field) [5] = assay: Preemergence herbicidal evaluation; format: in vivo, Zea mays; details: rated 4-5 weeks after treatment
Procedure, shortened: as §2

ZEAMX (Corn, Field) [6] = assay: Postemergence herbicidal evaluation; format: in vivo, Zea mays; details: postemergence
Procedure, shortened: as §1

[7] = test system: IPOHE (Morningglory, Ivyleaf); assay: Preemergence herbicidal evaluation; format: in vivo, Ipomoea hederacea; details: rated 4-5 weeks after treatment
Procedure, shortened: as §2

CYPSE (Flatsedge) [8] = assay: Preemergence weed control under flooded paddy conditions; format: in vivo, Cyperus serotinus; details: rated 3-4 weeks after treatment
Procedure, shortened: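 Flooded-pot preemergence screen with silt loam and seeds in the upper 0.5 cm. Dose about 0.0313 to 0.500 kg/ha, delivered into flood water; visual 0-9 score after 3 to 4 weeks.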

[9] = test system: ECHORC (Watergrass (Calif.)); assay: as above; format: in vivo, Echinochloa oryzoides; details: rated 3-4 weeks after treatment
Procedure, shortened: (§4)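 Herbicidal effect is scored visually on a 0-9 scale against an untreated control, three to four weeks after compounds are pipetted into the flood water (1.5 to 3 cm deep) over seeds planted in silt loam at 0.5 cm depth. Rates: about 0.0313 to 0.500 kg/ha.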

ORYSAT (Rice, Tebonnet) = assay: Preemergence herbicidal evaluation; format: in vivo, Oryza sativa, (L.) Tebonnet; details: rated 4-5 weeks after treatment
Procedure, shortened: as §2

CYPIR (Rice Flatsedge) = assay: Preemergence weed control under flooded paddy conditions; format: in vivo, Cyperus iria; details: rated 3-4 weeks after treatment
Procedure, shortened: as §4

## CCOC(=O)CN1C(=O)C(CC(=O)O)S/C1=N/c1cc(-n2c(=O)cc(C(F)(F)F)n(C)c2=O)c(F)cc1Cl (centres unmarked) [Compound 16]
CASOB (Sicklepod); rate 0.0157 kg/ha
  CASOB herbicidal rating: 9.0
CASOB (Sicklepod); rate 0.0313 kg/ha
  CASOB herbicidal rating: 6.2
CASOB (Sicklepod); rate 0.0625 kg/ha
  CASOB herbicidal rating: 8.0
CASOB (Sicklepod); rate 0.1250 kg/ha
  CASOB herbicidal rating: 9.0
CASOB (Sicklepod); rate 0.2500 kg/ha
  CASOB herbicidal rating: 9.0
AMBEL (Ragweed, Common); rate 0.0156 kg/ha
  AMBEL preemergence herbicidal rating: 2.3
AMBEL (Ragweed, Common); rate 0.0313 kg/ha
  AMBEL preemergence herbicidal rating: 4.5
AMBEL (Ragweed, Common); rate 0.0625 kg/ha
  AMBEL preemergence herbicidal rating: 7.8
AMBEL (Ragweed, Common); rate 0.1250 kg/ha
  AMBEL preemergence herbicidal rating: 8.5
AMBEL (Ragweed, Common); rate 0.2500 kg/ha
  AMBEL preemergence herbicidal rating: 8.9
AMBEL (Ragweed, Common); rate 0.5000 kg/ha
  AMBEL preemergence herbicidal rating: 9.0
[1]; rate 0.0156 kg/ha
  CHEAL preemergence herbicidal rating: 5.7
[1]; rate 0.0313 kg/ha
  CHEAL preemergence herbicidal rating: 8.4
[1]; rate 0.0625 kg/ha
  CHEAL preemergence herbicidal rating: 8.8
[1]; rate 0.1250 kg/ha
  CHEAL preemergence herbicidal rating: 9.0
[1]; rate 0.2500 kg/ha
  CHEAL preemergence herbicidal rating: 9.0
[1]; rate 0.5000 kg/ha
  CHEAL preemergence herbicidal rating: 9.0
CYPSE (Flatsedge) [2]; rate 0.0313 kg/ha
  Herbicidal rating CYPSE: 0.0
CYPSE (Flatsedge) [2]; rate 0.0625 kg/ha
  Herbicidal rating CYPSE: 0.0
CYPSE (Flatsedge) [2]; rate 0.1250 kg/ha
  Herbicidal rating CYPSE: 0.0
CYPSE (Flatsedge) [2]; rate 0.2500 kg/ha
  Herbicidal rating CYPSE: 0.0
[3]; rate 0.0156 kg/ha
  TRZAWR preemergence herbicidal rating: 0.1
[3]; rate 0.0313 kg/ha
  TRZAWR preemergence herbicidal rating: 0.5
[3]; rate 0.0625 kg/ha
  TRZAWR preemergence herbicidal rating: 0.5
[3]; rate 0.1250 kg/ha
  TRZAWR preemergence herbicidal rating: 0.8
[3]; rate 0.2500 kg/ha
  TRZAWR preemergence herbicidal rating: 2.6
[3]; rate 0.5000 kg/ha
  TRZAWR preemergence herbicidal rating: 5.8
GALAP (Galium); rate 0.0157 kg/ha
  GALAP herbicidal rating: 5.0
GALAP (Galium); rate 0.0313 kg/ha
  GALAP herbicidal rating: 5.3
GALAP (Galium); rate 0.0625 kg/ha
  GALAP herbicidal rating: 6.8
GALAP (Galium); rate 0.1250 kg/ha
  GALAP herbicidal rating: 8.4
GALAP (Galium); rate 0.2500 kg/ha
  GALAP herbicidal rating: 9.0
[4]; rate 0.0313 kg/ha
  Herbicidal rating ECHORC: 0.0
[4]; rate 0.0625 kg/ha
  Herbicidal rating ECHORC: 0.0
[4]; rate 0.1250 kg/ha
  Herbicidal rating ECHORC: 0.0
[4]; rate 0.2500 kg/ha
  Herbicidal rating ECHORC: 0.0
ZEAMX (Corn, Field) [5]; rate 0.0156 kg/ha
  ZEAMX preemergence herbicidal rating: 0.1
ZEAMX (Corn, Field) [5]; rate 0.0313 kg/ha
  ZEAMX preemergence herbicidal rating: 0.6
ZEAMX (Corn, Field) [5]; rate 0.0625 kg/ha
  ZEAMX preemergence herbicidal rating: 1.4
ZEAMX (Corn, Field) [5]; rate 0.1250 kg/ha
  ZEAMX preemergence herbicidal rating: 1.8
ZEAMX (Corn, Field) [5]; rate 0.2500 kg/ha
  ZEAMX preemergence herbicidal rating: 3.7
ZEAMX (Corn, Field) [5]; rate 0.5000 kg/ha
  ZEAMX preemergence herbicidal rating: 6.0
ZEAMX (Corn, Field) [6]; rate 0.0157 kg/ha
  ZEAMX herbicidal rating: 8.0
ZEAMX (Corn, Field) [6]; rate 0.0313 kg/ha
  ZEAMX herbicidal rating: 8.1
ZEAMX (Corn, Field) [6]; rate 0.0625 kg/ha
  ZEAMX herbicidal rating: 8.4
ZEAMX (Corn, Field) [6]; rate 0.1250 kg/ha
  ZEAMX herbicidal rating: 8.7
ZEAMX (Corn, Field) [6]; rate 0.2500 kg/ha
  ZEAMX herbicidal rating: 9.0
[7]; rate 0.0156 kg/ha
  IPOHE preemergence herbicidal rating: 0.9
[7]; rate 0.0313 kg/ha
  IPOHE preemergence herbicidal rating: 3.5
[7]; rate 0.0625 kg/ha
  IPOHE preemergence herbicidal rating: 7.6
[7]; rate 0.1250 kg/ha
  IPOHE preemergence herbicidal rating: 8.7
[7]; rate 0.2500 kg/ha
  IPOHE preemergence herbicidal rating: 9.0
[7]; rate 0.5000 kg/ha
  IPOHE preemergence herbicidal rating: 9.0
CYPSE (Flatsedge) [8]; 0.0313 kg/ha
  Herbicidal rating CYPSE: 0.0
CYPSE (Flatsedge) [8]; 0.0625 kg/ha
  Herbicidal rating CYPSE: 0.0
CYPSE (Flatsedge) [8]; 0.1250 kg/ha
  Herbicidal rating CYPSE: 0.0
CYPSE (Flatsedge) [8]; 0.2500 kg/ha
  Herbicidal rating CYPSE: 0.0
[9]; 0.0313 kg/ha
  Herbicidal rating ECHORC: 0.0
[9]; 0.0625 kg/ha
  Herbicidal rating ECHORC: 0.0
[9]; 0.1250 kg/ha
  Herbicidal rating ECHORC: 0.0
[9]; 0.2500 kg/ha
  Herbicidal rating ECHORC: 0.0
ORYSAT (Rice, Tebonnet); rate 0.0156 kg/ha
  ORYSAT preemergence herbicidal rating: 0.1
ORYSAT (Rice, Tebonnet); rate 0.0313 kg/ha
  ORYSAT preemergence herbicidal rating: 0.3
ORYSAT (Rice, Tebonnet); rate 0.0625 kg/ha
  ORYSAT preemergence herbicidal rating: 1.0
ORYSAT (Rice, Tebonnet); rate 0.1250 kg/ha
  ORYSAT preemergence herbicidal rating: 2.2
ORYSAT (Rice, Tebonnet); rate 0.2500 kg/ha
  ORYSAT preemergence herbicidal rating: 4.3
ORYSAT (Rice, Tebonnet); rate 0.5000 kg/ha
  ORYSAT preemergence herbicidal rating: 6.4
CYPIR (Rice Flatsedge); 0.0313 kg/ha
  Herbicidal rating CYPIR: 0.0
CYPIR (Rice Flatsedge); 0.0625 kg/ha
  Herbicidal rating CYPIR: 0.0
CYPIR (Rice Flatsedge); 0.1250 kg/ha
  Herbicidal rating CYPIR: 4.0
CYPIR (Rice Flatsedge); 0.2500 kg/ha
  Herbicidal rating CYPIR: 9.0
